Measurements reported in patent US7202085B2, “Control of gene expression in eukaryotic cells” (Calgene LLC, priority 1999, dated 2007).
“And” between values parts separate entries of the source, which are not always exact repeats. Equal entries are not always repeated. Where two headings read alike, the source gives them in different places.

Legend:
VP16-TraR = tested on: VP16-TraR
Protocol: Transgenic Arabidopsis plants containing TraA8(3×)-GUS reporter and 35S-VP16-TraR activator genes (pMON53077) were analyzed for induction of GUS activity. […] GUS assays were conducted as described by Jefferson et al. (supra).
In addition, detached leaves incubated for 24 hours in MS medium with or without 100 μM HSL were visualized for induction of GUS activity after staining.

TraR = biological target: T1, TraR (Agrobacterium tumefaciens, UniProt P33905); experiment: β-galactosidase reporter assay in yeast (TraA8 element, galactose-inducible TraR); format: cell-based; details: strain YPH499, c1.5 and 6, 3 copies of TraA8 element; 5 hrs growth on galactose; 50 μM C8-HSL
T1 construct: expressed in transfected cells; host or cells: Saccharomyces cerevisiae (strain 204142; YPH499)

tra box-GUS reporter = tested on: tra box-GUS reporter
Protocol: Plasmids for transfection were isolated and purified using Megaprep plasmid DNA isolation kit (Qiagen). Carrot protoplasts for transfections were prepared from carrot cell suspension culture and transfected with purified DNA as described (Ulmasov et al., Plant Cell 7:1611–1623, 1995). Briefly, 10 μg of the reporter plasmid and 5 μg of the effector plasmid were incubated with 10^6 protoplasts for five minutes at the room temperature in the presence of polyethylene glycol-calcium solution. After diluting approximately 10-fold with the culture medium, the protoplasts were incubated in the dark for 36 hours either in the presence or absence of the inducer 3-oxohexanoyl-homoserine lactone (OHHL, racemic mixture of the L- and D-isomers, purchased from Sigma Chemical Co., St Louis, Mo.). After incubation, protoplasts were collected by low-speed centrifugation, lysed and the level of GUS activity was measured using fluorometric GUS assay (Jefferson et al., EMBO J. 6:3901–3907, 1987).
Ten μg of the reporter plasmid (pMON53031), and indicated amount of the 35S effector plasmid per reaction was used for transfection in triplicate. […] The “− inducer” and “+ inducer” columns are averages of the GUS activities.
These constructs were tested for background GUS activity and TraR responsiveness in carrot protoplasts.

[1] = Table 5 lane 1: tra box (6X), cl.7 alone (35S-CAT), 12.5 μM C8-AHL
[2] = Table 5 lane 3: traA1(3X), cl.35 alone (35S-CAT), 12.5 μM C8-AHL
[3] = Table 5 lane 5: traA2(3X), cl.43 alone (35S-CAT), 12.5 μM C8-AHL
[4] = Table 5 lane 7: traA3(3X), cl.4 alone (35S-CAT), 12.5 μM C8-AHL
[5] = Table 5 lane 9: traA4(3X), cl.23 alone (35S-CAT), 12.5 μM C8-AHL
[6] = Table 5 lane 11: traA5(3X), cl.2 alone (35S-CAT), 12.5 μM C8-AHL
[7] = Table 5 lane 13: traA6(3X), cl.21 alone (35S-CAT), 12.5 μM C8-AHL
[8] = Table 5 lane 15: traA7(3X), cl.15 alone (35S-CAT), 12.5 μM C8-AHL
[9] = Table 5 lane 17: traA8(3X), cl.4 alone (35S-CAT), 12.5 μM C8-AHL
[10] = Table 5 lane 19: traA9(3X), cl.8 alone (35S-CAT), 12.5 μM C8-AHL
[11] = Table 5 lane 21: min-46GUS, 12.5 μM C8-AHL
[12] = Table 6 lane 1: Tra box(3X), cl.5 + CAT, 12.5 μM C8-AHL
[13] = Table 6 lane 3: TraA1(3X), cl.35 + CAT, 12.5 μM C8-AHL
[14] = Table 6 lane 5: TraA2(3X), cl.43 + CAT, 12.5 μM C8-AHL
[15] = Table 6 lane 7: TraA3(3X), cl.4 + CAT, 12.5 μM C8-AHL
[16] = Table 6 lane 9: TraA4(3X), cl.23 + CAT, 12.5 μM C8-AHL
[17] = Table 6 lane 11: TraA5(3X), cl.2 + CAT, 12.5 μM C8-AHL

T1 sequence (P33905 whole entry): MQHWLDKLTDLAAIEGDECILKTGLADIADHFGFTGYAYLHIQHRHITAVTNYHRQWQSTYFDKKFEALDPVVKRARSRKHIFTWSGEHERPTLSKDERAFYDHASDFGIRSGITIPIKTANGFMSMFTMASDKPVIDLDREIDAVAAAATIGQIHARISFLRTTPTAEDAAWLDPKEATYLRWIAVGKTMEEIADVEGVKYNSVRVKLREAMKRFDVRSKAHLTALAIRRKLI

`CCCCCC(=O)CC(=O)N[C@H]1CCOC1=O` [C8-HSL, 3-oxooctanoyl-L-homoserine lactone] was tested, and the “histochemical GUS staining” value (VP16-TraR; detached caulline leaves, 24 hours in MS medium, 100 μM HSL) was “uniform induced activity”, the “+Inducer (GUS activity)” value (VP16-TraR; plant s3553-1) was 556.56 and the “+Inducer (GUS activity)” value (VP16-TraR; plant s3553-2) was 554.08. The “+Inducer (GUS activity)” value (VP16-TraR; plant s3554-1) was 3101.09, the “+Inducer (GUS activity)” value (VP16-TraR; plant s3554-2) was 3098.61 and the “+Inducer (GUS activity)” value (VP16-TraR; plant s3559-1) was 599.93. For the same molecule, the “+Inducer (GUS activity)” value (VP16-TraR; plant s3559-2) was 597.45, the “+Inducer (GUS activity)” value (VP16-TraR; plant s3562-1) was 75.93 and the “+Inducer (GUS activity)” value (VP16-TraR; plant s3562-2) was 73.45. The “+Inducer (GUS activity)” value (VP16-TraR; plant s3570-1) was 4831.21, the “+Inducer (GUS activity)” value (VP16-TraR; plant s3570-2) was 4828.73 and the “+Inducer (GUS activity)” value (VP16-TraR; plant s3573-1) was 768.65. For the same molecule, the “+Inducer (GUS activity)” value (VP16-TraR; plant s3573-2) was 766.17, the “+Inducer (GUS activity)” value (VP16-TraR; plant s3575-1) was 3453.00 and the “+Inducer (GUS activity)” value (VP16-TraR; plant s3575-2) was 3450.52. For the same molecule, the “+Inducer (GUS activity)” value (VP16-TraR; plant s3582-1) was 559.86, the “+Inducer (GUS activity)” value (VP16-TraR; plant s3582-2) was 557.38 and the “+Inducer (GUS activity)” value (VP16-TraR; plant s3594-1) was 515.77. The “+Inducer (GUS activity)” value (VP16-TraR; plant s3594-2) was 513.29, the “+Inducer (GUS activity)” value (VP16-TraR; plant wild-type) was 2.48 and the “β-gal activity (chemiluminescent assay)” value (TraR) was “strong induction”. The “+inducer (average GUS activity)” value (tra box-GUS reporter; Table 4: min35S-GUS, 25 [i M OOHL]) was 6.1, the “+inducer (average GUS activity)” value (tra box-GUS reporter; Table 4: pMON53031 alone, 25 [i M OOHL]) was 265 and the “4, 5, 6 (replicate GUS activities, +inducer)” value (tra box-GUS reporter; [1]) was 569.8 and 647.3 and 643.6. For the same molecule, the “+inducer (average GUS activity)” value (tra box-GUS reporter; [1]) was 620.2, the “4, 5, 6 (replicate GUS activities, +inducer)” value (tra box-GUS reporter; [2]) was 110.8 and 118.5 and 145.2 and the “+inducer (average GUS activity)” value (tra box-GUS reporter; [2]) was 124.8. For the same molecule, the “4, 5, 6 (replicate GUS activities, +inducer)” value (tra box-GUS reporter; [3]) was 240.6 and 221.1 and 229.7, the “+inducer (average GUS activity)” value (tra box-GUS reporter; [3]) was 230.5 and the “4, 5, 6 (replicate GUS activities, +inducer)” value (tra box-GUS reporter; [4]) was 89.3 and 94.4 and 103.2. The “+inducer (average GUS activity)” value (tra box-GUS reporter; [4]) was 95.6, the “4, 5, 6 (replicate GUS activities, +inducer)” value (tra box-GUS reporter; [5]) was 177.7 and 196.0 and 195.0 and the “+inducer (average GUS activity)” value (tra box-GUS reporter; [5]) was 189.6. For the same molecule, the “4, 5, 6 (replicate GUS activities, +inducer)” value (tra box-GUS reporter; [6]) was 20.6 and 16.2 and 13.1, the “+inducer (average GUS activity)” value (tra box-GUS reporter; [6]) was 16.6 and the “4, 5, 6 (replicate GUS activities, +inducer)” value (tra box-GUS reporter; [7]) was 73.6 and 64.2 and 76.1. For the same molecule, the “+inducer (average GUS activity)” value (tra box-GUS reporter; [7]) was 71.3, the “4, 5, 6 (replicate GUS activities, +inducer)” value (tra box-GUS reporter; [8]) was 215.1 and 200.0 and 238.6 and the “+inducer (average GUS activity)” value (tra box-GUS reporter; [8]) was 217.9. For the same molecule, the “4, 5, 6 (replicate GUS activities, +inducer)” value (tra box-GUS reporter; [9]) was 36.3 and 43.3 and 39.8, the “+inducer (average GUS activity)” value (tra box-GUS reporter; [9]) was 39.8 and the “4, 5, 6 (replicate GUS activities, +inducer)” value (tra box-GUS reporter; [10]) was 32.4 and 35.6 and 36.2. The “+inducer (average GUS activity)” value (tra box-GUS reporter; [10]) was 34.7, the “4, 5, 6 (replicate GUS activities, +inducer)” value (tra box-GUS reporter; [11]) was 145.4 and 124.2 and 116.0 and the “+inducer (average GUS activity)” value (tra box-GUS reporter; [11]) was 128.5. The “4, 5, 6 (replicate GUS activities, +inducer)” value (tra box-GUS reporter; [12]) was 264.6 and 251.9 and 230.9, the “+inducer (average GUS activity)” value (tra box-GUS reporter; [12]) was 249.1 and the “4, 5, 6 (replicate GUS activities, +inducer)” value (tra box-GUS reporter; [13]) was 70.7 and 54.2 and 42.8. For the same molecule, the “+inducer (average GUS activity)” value (tra box-GUS reporter; [13]) was 55.9, the “4, 5, 6 (replicate GUS activities, +inducer)” value (tra box-GUS reporter; [14]) was 125.2 and 103.0 and 110.2 and the “+inducer (average GUS activity)” value (tra box-GUS reporter; [14]) was 112.8. For the same molecule, the “4, 5, 6 (replicate GUS activities, +inducer)” value (tra box-GUS reporter; [15]) was 59.2 and 62.8 and 46.4, the “+inducer (average GUS activity)” value (tra box-GUS reporter; [15]) was 56.1 and the “4, 5, 6 (replicate GUS activities, +inducer)” value (tra box-GUS reporter; [16]) was 87.9 and 86.4 and 85.9. The “+inducer (average GUS activity)” value (tra box-GUS reporter; [16]) was 86.7, the “4, 5, 6 (replicate GUS activities, +inducer)” value (tra box-GUS reporter; [17]) was 72.5 and 68.2 and 90.9 and the “+inducer (average GUS activity)” value (tra box-GUS reporter; [17]) was 77.2.
